From US20260158152A1, “SPLICING MODULATOR ANTIBODY-DRUG CONJUGATES AND METHODS OF USE” (EISAI R&D MANAGEMENT CO., LTD., priority 2018, published 2026) come the findings set out here.

Series [1] in a line: Caco-2 permeability of ADC payload. The format is in vitro ADME. As to conditions: human, Caco-2; payload, apical to basolateral, 2 hours; read-out: Permeability Mean Caco-2 A-B Perm (10e−6 cm/s). On the technique in general: Passage across Caco-2 layers is used to estimate intestinal permeability.
Description: (§1) Integrity of cell monolayer was confirmed by TEER (transepithelial electrical resistance) and Lucifer yellow. Payloads were spiked in duplicate at 10 µM, separately, on both sides of the cell monolayer. Permeability rates from the apical to basolateral (A−B) direction and the basolateral to apical (B−A) direction were determined by sampling aliquots from both chambers immediately after treatment (t=0) and following incubation for 2 hours. Samples were protein precipitated with organic solvent containing internal standard and analyzed by LC-MS/MS (SCIEX; API 5500). The area ratio responses of payload/internal standard over time in both directions were used to generate permeability (cm/sec) values.
The subject of series [2] is Caco-2 cells. The series is described as follows: Caco-2 permeability of ADC payload. The format is in vitro ADME. As to conditions: corresponding free payload, B-A.
Description: as §1
For series [3], the system named is PC3 cells. The series is described as follows: Cell viability, EPHA2-expressing PC3. The format is cell-based. To be noted: free payload of the ADC.
Description: (§2) HCC1954 (American Type Culture Collection (ATCC)) breast ductal carcinoma cells were plated at 2000 cells/well in flat bottom 96-well tissue culture plates (Corning) in a total volume of 90 μL tissue culture medium supplemented with 10% fetal bovine serum (ThermoFisher Scientific). Cells were treated with a 3-fold serial dilution of compound from 200 nM to 0.03 nM. Each concentration was tested in triplicate. At the time of treatment, a plate of untreated cells was evaluated using CellTiter-Glo®2.0 Luminescent Cell Viability Assay according to the manufacturer's recommendations (Promega; #G9241). CellTiter-Glo® 2.0 reagent was added to the medium, incubated, and assayed on an EnVision Multilabel Reader (PerkinElmer). Values represent time zero (TO). […] Percentage growth inhibition was calculated as: [(T144−T0)/(C−T0)]×100 for concentrations for which T144>/=T0 or [(T144−T0)/T0]×100 for concentrations for which T144<T0. The dose response curve plots were generated using Prism 7 (Graphpad) and fit using nonlinear regression analysis and the log (inhibitor) versus response—variable slope (four parameters).
(§3) Anti-CD138 ADCs were tested in the CD138-expressing MOLP8 multiple myeloma cell line. Similarly, anti-EPHA2 ADCs were tested in the EPHA2-expressing PC3 prostate cancer cell line.
Series [4] relates to NCIH1650.1. The series is described as follows: Payload cellular potency, CTGlo-ATS, 72 h, NCIH1650.1. To be noted: corresponding free payload, cell line #1, 72 h. In kind it is cell-based.
The subject of series [5] is N87 cells. The series is described as follows: Cell viability CellTiter-Glo, N87. The format is cell-based, human. To be noted: unconjugated payload of the ADC. (In general: In ATP-based viability assays light output follows the ATP content of the culture.)
Description: as §2
HCC1954 (ATCC), 2000 cells/well), N87 (ATCC, 4000 cells/well), SKBR3 (ATCC, 3000 cells/well), and MCF7 (ATCC, 1500 cells/well) cell lines were used. Cell viability analysis was performed as described in section 2.3.
Series [6] concerns MOLP8 cells. The series is described as follows: Cell viability, CD138-expressing MOLP8. In kind it is cell-based. As to conditions: unconjugated payload of the ADC.
Description: as §2, §3
Series [7] relates to Ad2.1 pre-mRNA splicing. The series is described as follows: In vitro splicing (IVS) RT-qPCR, Ad2.1 pre-mRNA in HeLa S3 nuclear extract. The format is biochemical. To be noted: payload of the ADC; read-out: qPCR-IVS-ATS GMean IC50 (nM) Ad2.1. Here is the method:
To evaluate payload activity in a cell-free system, an in vitro splicing assay was performed. The payloads were incubated with nuclear extracts and pre-mRNA substrate minigenes.
HeLa nuclear extract preparation: HeLa S3 cell pellets were resuspended in hypotonic buffer (10 mM HEPES PH 7.9, 1.5 mM MgCl2, 10 mM KCl, 0.2 mM PMSF, 0.5 mM DTT) and the suspension was brought up to a total of 5 packed cell volume (PCV). After centrifugation, the supernatant was discarded, and the cells were brought up to 3 PCV with hypotonic buffer and incubated on ice for 10 min. Cells were lysed using a dounce homogenizer and then centrifuged. […]. The nuclei were gently mixed for 30 min before centrifuging. The supernatant (nuclear extract) was then dialyzed into storage buffer (20 mM HEPES pH 7.9, 100 mM KCl, 0.2 mM EDTA, 20% glycerol, 0.2 mM PMSF, 0.5 mM DTT). Protein concentration was determined using NanoDrop 8000 UV-Vis spectrophotometer (ThermoFisher Scientific).
IVS: All Ad2-derived sequences (Pellizzoni et al. (1998) Cell 95 (5): 615-24) were cloned into pcDNA3.1(+) vector (Promega) using 5′ EcoRI and 3′ XbaI restriction sites. The plasmids were linearized using XbaI and used as DNA templates in in vitro transcription reactions. The FtzΔi intron-less plasmid (Luo and Reed (1999) 96 (26): 14937-42) was linearized using EcoRI. […]

For series [8], the system named is THP1.1. The series is described as follows: Payload cell potency and lethality CellTiter-Glo, THP1. In kind it is cell-based. As to conditions: payload of the ADC. As to the method: Each concentration was tested in triplicate. […] Values represent time zero (TO).

Turning to `CC[C@H](O)[C@@H](C)[C@H]1O[C@@H]1C[C@@](C)(O)/C=C/C=C(\C)[C@H]1OC(=O)C[C@H](O)CC[C@@](C)(OC(=O)N2CCNCC2)[C@@H](OC(C)=O)/C=C/[C@@H]1C` [D8, (2S,3S,6S,7R,10R,E)-6-acetoxy-10-hydroxy-2-((R,2E,4E)-6-hydroxy-7-((2R,3R)-3-((2R,3S)-3-hydroxypentan-2-yl)oxiran-2-yl)-6-methylhepta-2,4-dien-2-yl)-3,7-dimethyl-12-oxooxacyclododec-4-en-7-yl piperazine-1-carboxylate], the Papp A→B at 2 h, 10 µM in series [1] stood at 0.138 ×10⁻⁶ cm/s. Moreover, in series [2], the “Perm. Mean Caco-2 B-A Perm” value is listed as 2.027 10e−6 cm/s. Besides, the “Payload Rmin” value in series [3] is reported as −68.37%. The “CTGlo-ATS GMean LD50 72 h NCIH1650.1” value in series [4] was over 10 µM. For the same molecule, the “Payload Rmin (%)” value in series [5] was −34.052%.
On to `CC(=O)N1CCC(n2nnc3c(F)cc(/C=C(\C)[C@H]4OC(=O)C[C@H](O)CC[C@H](C)[C@@H](OC(=O)N5CCNCC5)/C=C/[C@@H]4C)cc32)CC1` [D14], for which the Papp A→B at 2 h, 10 µM in series [1] was 0.08 ×10⁻⁶ cm/s. Also, the “Payload Rmin (%)” value in series [6] is −6.1%; in series [5] it was −52.662%. The “Payload Rmin” value in series [3] is −79.835%.
As a reminder, the IC50 is the concentration that inhibits the measured activity by half. For the molecule `C/C(=C\c1cc(F)cc(N2CCN(C(=O)Cn3cccn3)CC2)c1)[C@H]1OC(=O)C[C@H](O)CC[C@H](C)[C@@H](OC(=O)N2CCNCC2)/C=C/[C@@H]1C` [D16], in series [7], the IC50 was 18 nM. In series [8], the “Payload cell lethality: CT..-ATS GMean LD50 (nM) THP1.1” value is 21.48 nM.
